Assay results published in the RepoRT retention time repository (doi:10.1016/j.jhazmat.2019.121712).

Assay: Thermo Scientific Acclaim RSLC 120 C18, 100 × 2.1 mm, 2.2 µm, 30 °C; A: 90% water + 10% methanol + 0.01% formic acid + 5 mM ammonium formate; B: methanol + 0.01% formic acid + 5 mM ammonium formate; gradient (min/%B) 0.1/1 3/39 14/99.9 16/99.9
Conditions: stereoisomer not certain

Row | SMILES | LC retention time [min]
1 | CCCCCn1c(C)c(C(=O)c2cccc3ccccc23)c2ccccc21 | 12.6
2 | CN(C)C(=S)SSC(=S)N(C)C | 6.8
3 | COCc1cnc(C2=NC(C)(C(C)C)C(=O)N2)c(C(=O)O)c1 (stereo unspecified) | 4.63
4 | COCCc1ccc(OCC(O)CNC(C)C)cc1 (stereo unspecified) | 4.93
5 | NC(=O)c1ccccc1Oc1ccccc1 | 7.79
6 | CCOC1OC(C(=O)O)C(O)C(O)C1O (stereo unspecified) | 1.52
7 | CCN(CC)CCOCCOC(=O)C(CC)(CC)c1ccccc1 | 8.04
8 | CCCCCc1cc(O)c2c(c1)OC(C)(C)c1ccc(C)cc1-2 | 13.7
9 | CC(Cc1ccc(C(C)(C)C)cc1)CN1CC(C)OC(C)C1 (stereo unspecified) | 10.7
10 | CCCCCn1cc(C(=O)c2ccc(OC)cc2)c2ccccc21 | 11.8
11 | COc1nn(CSP(=S)(OC)OC)c(=O)s1 | 8.7
12 | C1COC(NC(C2CC2)C2CC2)=N1 | 4.4
13 | Cc1cc(NS(=O)(=O)c2ccc(N)cc2)no1 | 4.6
14 | COc1ccc(CCN(C)CCCC(C#N)(c2cc(OC)c(OC)c(OC)c2)C(C)C)cc1OC (stereo unspecified) | 7.19
15 | CNC(=O)N(C)c1nc2ccccc2s1 | 8.26
16 | CP(=O)(O)CCC(N)C(=O)O (stereo unspecified) | 1.44
17 | O=C1CC2(CCCC2)CC(=O)N1CCCCN1CCN(c2ncccn2)CC1 | 5.78
18 | CC(C(=O)O)c1ccc(CC(C)(C)O)cc1 (stereo unspecified) | 7.08
19 | CC(C(=O)c1ccc2c(c1)OCO2)N(C)C (stereo unspecified) | 3.78

Row | SMILES | LC retention time [min]
20 | CCCCN1CC(=O)N2C(Cc3c([nH]c4ccccc34)C2c2ccc3c(c2)OCO3)C1=O (stereo unspecified) | 10.2
21 | CC(C)N(CCc1c[nH]c2cccc(O)c12)C(C)C | 4.34
22 | COc1ccc2c3c1OC1C(=O)CCC4(O)C(C2)NCCC314 (stereo unspecified) | 3.71
23 | CC12C=CC(=O)C=C1CCC1C2C(O)CC2(C)C1CCC2(O)C(=O)CO (stereo unspecified) | 7.84
24 | OCCOCCN1CCN(C2=Nc3ccc(O)cc3Sc3ccccc32)CC1 | 4.99
25 | CCn1nc(C(=O)O)c(=O)c2cc3c(cc21)OCO3 | 5.32
26 | CC(CC(C#N)(c1ccccc1)C(C)C)N(C)C (stereo unspecified) | 5.96
27 | CC1C(=O)OC2CCN3CC=C(COC(=O)C(C)(O)C1(C)O)C23 (stereo unspecified) | 2.92
28 | CCCCCn1cc(C(=O)c2ccc(C)c3ccccc23)c2ccccc21 | 12.9
29 | CCOP(=S)(OCC)Oc1ccc(=O)n(-c2ccccc2)n1 | 9.79
30 | CCC(C)(C)C(=O)OC1CC(C)C=C2C=CC(C)C(CCC3CC(O)CC(=O)O3)C21 (stereo unspecified) | 12.6
31 | CN1CCN(C(c2ccccc2)c2ccccc2)CC1 | 6.94
32 | CC(Cc1ccccc1)N1C=C(NC(=O)N=C2C=CC(=O)C=C2)ON1 (stereo unspecified) | 7.24
33 | CC(C)(C)NCC(O)c1ccc(O)c(NC(N)=O)c1 (stereo unspecified) | 2.89
34 | CNC(C)Cc1ccc2c(c1)OCO2 (stereo unspecified) | 4.18
35 | COc1ccccc1CC(=O)c1cn(CCC2CCCCC2)c2ccccc12 | 13
36 | CCCN1CC(CSC)CC2c3cccc4[nH]cc(c34)CC21 (stereo unspecified) | 6.19
37 | c1ccc2n[nH]nc2c1 | 4.76
38 | CN(C)P(=O)(OP(=O)(N(C)C)N(C)C)N(C)C | 5.36

Row | SMILES | LC retention time [min]
39 | NCC1CCC(C(=O)O)CC1 (stereo unspecified) | 1.79
40 | Cc1cccc(C)c1OCC(C)N (stereo unspecified) | 5.59
41 | CCNc1nc(NC(C)(C)C)nc(SC)n1 | 10.2
42 | O=C1c2ccccc2C(=O)C1C(=O)C(c1ccccc1)c1ccccc1 | 8.6
43 | CC(=O)Oc1cccc2[nH]cc(CCN(C(C)C)C(C)C)c12 | 4.88
44 | CCC1OC(=O)C(C)C(OC2CC(C)(OC)C(O)C(C)O2)C(C)C(OC2OC(C)CC(N(C)C)C2O)C(C)(O)CC(C)C(=O)C(C)C(O)C1(C)O (stereo unspecified) | 8
45 | COc1ccc(CCNCCCC(C#N)(c2ccc(OC)c(OC)c2)C(C)C)cc1OC (stereo unspecified) | 6.96
46 | Nc1ccc(S(=O)(=O)Nc2cnc3ccccc3n2)cc1 | 5.81
47 | CCCCn1cc(C(=O)c2cccc3ccccc23)c2c(O)cccc21 | 12
48 | O=C1OCC(O)=C1Cc1ccccc1 | 5.06
49 | CCOP(=S)(OCC)Oc1cnc2ccccc2n1 | 10.8
50 | CCCSP(=S)(OCC)Oc1ccc(SC)cc1 (stereo unspecified) | 12.8
51 | CCCCCCC(C)(C)c1cc(O)c2c(c1)OC(C)(C)C1CC=C(CO)CC21 (stereo unspecified) | 13.5
52 | Cc1cccc(OCC(O)CNC(C)C)c1 (stereo unspecified) | 5.29
53 | CCC(C)C(=O)OC1CC(C)C=C2C=CC(C)C(CCC3CC(O)CC(=O)O3)C21 (stereo unspecified) | 12
54 | CN(C)CCC=C1c2ccccc2C(C)(C)c2ccccc21 | 8.79
55 | CC(C)NCC(O)COc1ccc(CCOCC2CC2)cc1 (stereo unspecified) | 6.68
56 | CN(C)C(CSS(=O)(=O)c1ccccc1)CSS(=O)(=O)c1ccccc1 | 9.6
